Entries after “also recorded” stand apart in the source; their conditions may differ.
Assays:
HPV16-infected SG3 cells = assay: MK-8353 treatment of HPV16-infected SG3 cells, immunoblot; format: cell-based; details: MK-8353 dissolved in Tc, 48 h
Description: The p-ERK1/2 inhibitor MK-8353 (Selleck Chemicals LLC, Houston, TX) was dissolved in 2-(2-ethoxyethoxy)ethanol (Tc) at 5 mM. HPV16-infected SG3 cells were plated in complete medium and then treatments were initiated without active agent or with increasing concentrations of MK-8353 in serum-free medium. At 24 h post treatment, fresh treatments were added and maintained for an additional 24 h. Cells treated for 48 h were lysed with detergent-containing buffer and 50 μg of each sample was analyzed by SDS-PAGE and immunoblot for the proteins of interest including p-ERK1/2, p-Fra1, HPV16 E7, and actin.

[1] = test system: HPV16-infected cells established from cervix (W12-E); assay: HPV16-infected W12-E 3D organotypic raft tissue, trametinib added systemically; format: cell-based; details: 10 nM trametinib added systemically every 48 hours on days 8, 10, 12
Description: FIG. 2. Histology data showing that HPV16 oncogene transcription and activity is modulated by MEK1/2 activation in 3D organotypic epithelial tissue cultures. HPV16-infected cells established from cervix (W12-E) were cultured as raft tissues for 14 days. Panels A-D are taken from tissues cultured under normal conditions. Panels E-H are images of tissue cultured with 10 ng/mL EGF added systemically (in the cell culture medium below the basal layer and collagen matrix) every 48 hours on days 8, 10, and 12 post raft tissue lifting to the air-liquid interface. Panels I-L are images of tissues cultured with 10 nM trametinib added systemically every 48-hours on days 8, 10, and 12 post raft tissue lifting to the air-liquid interface. Tissues were examined for morphology (Top, H&E staining), phosphorylated ERK1/2 (p-ERK1/2) immunohistochemistry (brown), HPV E6&E7 mRNA in situ hybridization (red), and E7 activity via proxy p16INK4A immunohistochemistry. Broken lines underscore the basal cell layer above the collagen matrix; bars=100 μm.

MmuPV1 [2] = assay: MmuPV1-induced tail tumor (wart) model, oral gavage; format: in vivo; details: oral gavage every 48 hours for four weeks, cobimetinib 7.5 or 15 mg/kg, trametinib 1.0 or 2.0 mg/kg, athymic nude mice
Description: FIG. 3. […] Female Hsd:Athymic Nude-Foxn1^nu mice were infected with 2×10^8 viral genome equivalents (VGE) of MmuPV1 virions. Tumors (warts) were allowed to grow for 6 weeks before randomizing into vehicle or treatment groups (n=6 per group) with each group having an average tumor volume (length×width×height) of approximately 40 mm^3. Mice were dosed by oral gavage treatment every 48 hours for four weeks before harvesting each tumor for histology. (A) Quantification of tail tumor volumes over 32 days of treatment in mice infected with MmuPV1 and treated with vehicle, 7.5 mg/kg cobimetinib, or 15 mg/kg cobimetinib. (B) Quantification of tail tumor volume over 32 days of treatment in mice infected with MmuPV1 and treated with vehicle (same as in FIG. 3A), 1.0 mg/kg trametinib, or 2.0 mg/kg trametinib. Statistical analyses by two-way Anova, Dunnett's T3 test ([…], ** p<0.01). (C) Representative images of tail tumors of a mouse treated with vehicle only. (D) Representative images of tail tumors of a mouse treated with 7.5 mg/kg cobimetinib or 15 mg/kg cobimetinib. (E) Representative images of tail tumors of a mouse treated with 1.0 mg/kg trametinib or 2.0 mg/kg trametinib.

[3] = test system: HPV16-infected SG3 human keratinocytes; assay: Topical treatment of HPV16-infected 3D organotypic epithelial raft tissues; format: cell-based
Description: FIG. 6. […] HPV16-infected (SG3) cells were cultured as raft tissues for 12 days. Duplicate raft tissues were left untreated, or topically treated with 0.5 ml of either vehicle gel (20% Tc, 2.5% HPC in PBS) alone or 30 μM trametinib in vehicle gel for 48 hours. One raft from each duplicate set was collected for total protein extraction for SDS-PAGE and immunoblots (A), the second raft was harvested for tissue fixation, paraffin embedding, and cross-sectioning of tissues for histology (B-J). […] Panels B-D show histology by H&E staining in untreated, vehicle-treated, and 30 μM trametinib-treated rafts. […] Broken lines underscore the basal cell layer.
FIG. 18. Experiment akin to that in FIG. 6, except that it uses 2.5% HPC and 10% Tc for the vehicle. Drug treatment includes 15 μM trametinib. Experimental groups were treated with the topical formulations for 24 hours or 48 hours before harvesting for immunoblots and tissue sectioning.
The experimental protocol used in this example is illustrated in FIG. 5. A semi-solid collagen-fibroblast matrix was created to act as a dermal equivalent (stage 1). HPV16-infected SG3 human keratinocytes (cells) that maintained circular HPV16 genomes extrachromosomally were seeded on the top of the dermal equivalent submerged in growth medium (stage 2). After the HPV-infected keratinocytes grew to confluency (2-3 days), growth medium was removed, and the dermal equivalent was lifted to the air-liquid interface above fresh growth medium (stage 3). Fresh medium was replaced every two days. This allowed the keratinocytes to stratify and differentiate into a multilayered epithelium akin to human skin/mucosa within 10-12 days (Stage 4).
The MEK1/2 inhibitor trametinib was dissolved in diethylene glycol monoethyl ether (TRANSCUTOL; Gattefosse SAS, Saint-Priest, France). The trametinib-2-(2-ethoxyethoxy)ethanol solution was combined with hydroxypropyl cellulose (KLUCEL MXF Pharma, 850 kDa), a pharmaceutical grade thermal gelation agent. Formulations of 30 μM trametinib, 20% 2-(2-ethoxyethoxy)ethanol, and 2.5% hydroxypropyl cellulose applied one time to stratified and differentiated HPV16-infected three-dimensional organotypic epithelial “raft” tissues cultured at the air-liquid interface for 12 days. Each treatment was carried out in duplicate. Tissues were harvested daily two to five days post treatment for total protein extraction and histological analyses (FIG. 6). Specifically, each raft tissue was divided in half with a scalpel. One half was subject to total protein extraction, SDS-PAGE and immunoblot; the second half was fixed in 10% neutral buffered formalin, embedded in paraffin, and sectioned ([…]) on to microscope slides. The tissue sections were subject to histology, immunohistochemistry, or in situ hybridization.
Formulations according to TABLE 2 were prepared. Epithelial raft tissues were prepared as described in Example 1. Each formulation was topically applied to duplicate HPV-infected raft epithelial tissues.
Each formulation was left on the tissue raft undisturbed for 48 hours. 48 hours after treatment, tissues were harvested for protein extraction and histological analysis as described above.
In Example 3, epithelial raft tissues were topically treated in duplicate with formulations including trametinib and 2-(2-ethoxyethoxy)ethanol and analyzed for p-ERK1/2 and E7 protein expression after three days (72 hours). Epithelial raft tissues were prepared as described in Example 1. Formulations were prepared according to TABLE 2. Each epithelial raft tissue was topically treated with one formulation. 72 hours after treatment, epithelial raft tissues were collected for protein extraction.

MmuPV1 [4] = assay: Topical gel treatment of MmuPV1-induced tumors in vivo; parameters: species or system mice; details: daily topical gel (2.5% HPC, 15%-18% TRANSCUTOL) with trametinib 150 μM-600 μM; starting tumors 145.3 mm^3 to 279.4 mm^3
Description: Mice bearing MmuPV1-induced tumors ranging in volume from 145.3 mm^3 to 279.4 mm^3 were treated daily with a topical gel (2.5% HPC, 15%-18% TRANSCUTOL (Gattefosse SAS, Saint-Priest, France)) containing the MEK inhibitor trametinib (150 μM-600 μM).

[5] = test system: HPV16-infected SG3 human keratinocytes; assay: Topical treatment of HPV16-infected 3D organotypic epithelial raft tissues; format: cell-based; details: TABLE 2 formulations, single topical treatment, 96 hours
[6] = increasing concentrations in serum-free medium
[7] = 15 μM trametinib in 2.5% HPC and 10% Tc vehicle, 24 hours or 48 hours
[8] = TABLE 2 formulations, 30 μM trametinib, single topical treatment, 48 hours

Structure (SMILES): CS[C@@]1(C(=O)Nc2ccc3[nH]nc(-c4ccc(OC(C)C)nc4)c3c2)CCN(CC(=O)N2CC=C(c3ccc(-c4ncn(C)n4)cc3)CC2)C1 [MK-8353]
- phosphorylation of ERK1/2 (p-ERK1/2) (HPV16-infected SG3 cells): does not necessarily prevent
- levels of the HPV16 E7 oncoprotein (HPV16-infected SG3 cells; [6]): reduce the levels
- p-ERK1/2 activity as measured by p-Fra1 phosphorylation (HPV16-infected SG3 cells; [6]): Suppresses

Structure (SMILES): CC(=O)Nc1cccc(-n2c(=O)n(C3CC3)c(=O)c3c(Nc4ccc(I)cc4F)n(C)c(=O)c(C)c32)c1 [trametinib, N-(3-{3-Cyclopropyl-5-[(2-fluoro-4-iodophenyl)amino]-6,8-dimethyl-2,4,7-trioxo-3,4,6,7-tetrahydropyrido[4,3-d]pyrimidin-1 (2H)-yl}phenyl)acetamide]
- E7 activity (E7 surrogate p16INK4A protein) [1]: suppresses
- MEK activation (p-ERK1/2 immunohistochemistry) [1]: suppresses
- production of E6/E7 mRNA (in situ hybridization) [1]: suppresses
- hyperproliferation ([1]; raft tissues cultured 14 days): suppresses
- tail tumor (wart) volume (MmuPV1 [2]): leads to tumor regression; also recorded: regression of warts to a smaller size than those originally treated
- E6/E7 mRNA detection [3, 7]: reduced
- p-ERK1/2 protein detection [3, 7]: reduced
- p-ERK1/2 by immunoblot ([3]; 30 μM trametinib, 20% 2-(2-ethoxyethoxy)ethanol, 2.5% HPC gel, applied one time, two days (48 hours) post treatment): complete suppression; also recorded: reduction in p-ERK1/2 to almost undetectable levels
- p-ERK1/2 suppression, later harvests ([3]; 30 μM trametinib, 20% Tc, 2.5% HPC gel, applied one time, three to five days post treatment): sustained
- p-ERK1/2 by immunohistochemistry ([3]; 30 μM trametinib, 20% Tc, 2.5% HPC gel, 48 hours): abrogates
- HPV16 E6/E7 mRNA by in situ hybridization ([3]; 30 μM trametinib, 20% Tc, 2.5% HPC gel, two days post treatment): complete suppression; also recorded: reduces E6/E7 mRNA to undetectable levels
- HPV16 E7 protein by immunoblot [3, 8]: suppresses
- p-ERK1/2 by immunoblot [3, 8]: suppresses
- hyperplasia ([3]; one-time topical treatment, 30 μM trametinib, 20% Tc, 2.5% HPC): suppressed
- MmuPV1 tumor volume (MmuPV1 [4]): promotes MmuPV1 tumor regression
- E7 by immunoblot [5]: decrease
- p-ERK1/2 by immunoblot [5]: decrease

Structure (SMILES): O=C(c1ccc(F)c(F)c1Nc1ccc(I)cc1F)N1CC(O)([C@@H]2CCCCN2)C1 [cobimetinib, (S)-[3,4-Difluoro-2-(2-fluoro-4-iodophenylamino)phenyl][3-hydroxy-3-(piperidin-2-yl)azetidine-1-yl]methanone]
- tail tumor (wart) volume (MmuPV1 [2]): suppresses MmuPV1-induced benign tumor (e.g., wart) growth
- tail tumor (wart) volume (MmuPV1 [2]; listed as Cobimetinib): suppresses wart growth but did not lead to regression
